From patent publication US20170234881A1, “METHODS OF DIAGNOSING AND TREATING CANCER” (INSERM ( INSTITUT NATIONAL DE LA SANTÉ ET DE LA RECHERCHE …, priority 2014, published 2017)

Experiments:
MDA-MB468 cells = assay: Growth of MDA-MB468 tumors implanted s.c. into mice; format: in vivo; conditions: human MDA-MB468 tumors, OCDO 16 μg/kg s.c.
Method: FIG. 2. OCDO is a tumor promoter in vitro and in vivo and its inhibition contributes to the anti-tumor effects of Tam and DDA. (A, B) Histograms representing the effect of OCDO or 17β-estrogen (E2) on MCF7 (A) and TS/A (B) cell proliferation after 24 h treatment using a colorimetric immunoassay measuring BrDU incorporation in DNA (C, D) Histogram representing the effect of OCDO on MCF7 (C) and TS/A (D) cell invasion. Data are the mean of three separate experiments (±s.e.m), *P<0.05, **P<0.01, ***P<0.001 (Student's t-test). (E, F) Mice were implanted s.c. with MCF7 (E) or TS/A (F) cells and animals (8 per group) were treated s.c. every day starting on the day of implantation with either the solvent vehicle or OCDO (16 μg/kg for MCF7 or 50 μg/kg for TS/A). Animals were monitored for tumour growth twice a week. […] (G) Mean (±s.e.m) of Ki67 positive cell number determined from IHC staining of MCF7 tumor sections from (E), n=8, *P<0.05 (Student's t-test) using HistoQuant, Pannoramic Viewer (3DHistech). […]
(§1) Exponentially growing MCF7, ShMCF7, E0771, MDA-MB231, MDA-MB468 and TS/A cells were collected, washed twice in PBS and resuspended in PBS. […] Animals were examined daily, and body weights were measured twice per week. In all the experiments, the tumor volume was determined by direct measurement with a caliper and was calculated using the formula (width^2×length)/2. […]

TS/A cells = assay: Cell invasion assay (matrigel-coated filters), TS/A; format: cell-based, mouse; conditions: concentration-dependent, level reached
Method: FIG. 2. OCDO is a tumor promoter in vitro and in vivo and its inhibition contributes to the anti-tumor effects of Tam and DDA. (A, B) Histograms representing the effect of OCDO or 17β-estrogen (E2) on MCF7 (A) and TS/A (B) cell proliferation after 24 h treatment using a colorimetric immunoassay measuring BrDU incorporation in DNA (C, D) Histogram representing the effect of OCDO on MCF7 (C) and TS/A (D) cell invasion. Data are the mean of three separate experiments (±s.e.m), *P<0.05, **P<0.01, ***P<0.001 (Student's t-test). (E, F) Mice were implanted s.c. with MCF7 (E) or TS/A (F) cells and animals (8 per group) were treated s.c. every day starting on the day of implantation with either the solvent vehicle or OCDO (16 μg/kg for MCF7 or 50 μg/kg for TS/A). Animals were monitored for tumour growth twice a week. The data are representative of three independent experiments. The mean tumor volume±s.e.m is shown, *P<0.05, **P<0.01, ***P<0.001 (analysis of variance (ANOVA), Dunnett's post test). (G) Mean (±s.e.m) of Ki67 positive cell number determined from IHC staining of MCF7 tumor sections from (E), n=8, *P<0.05 (Student's t-test) using HistoQuant, Pannoramic Viewer (3DHistech). […]
(§2) Invasion assays were carried out using Bio-Coat migration chambers (BD Falcon) with 8 μm filters previously coated with matrigel. […] The entire membranes were mounted on glass slides, and were counted under a microscope. […]

ShC tumors = assay: Ki67 staining of shC MCF7 tumors xenografted in mice; format: in vivo; conditions: OCDO treatment
Method: (§3) FIG. 7. Knock-down of 11βHSD2 decreases cell proliferation, invasion and survival in MCF7 cells as well as tumor growth and OCDO reverses these effects. shC or shHSD2 MCF7 cells were analyzed as followed: (A) The proliferation of sh-C or shHSD2 cells treated or not with OCDO 5 μM 24 h was measured using quantification of DNA BrDU incorporation as described in FIG. 2A. (B) The proliferation of sh-C or shHSD2 cells treated or not with increasing concentration of cortisone for 24 h was measured as in (A). (C) The invasiveness of sh-C or shHSD2 cells treated or not with OCDO 5 μM for 72 h was assayed using matrigel-coated filters. (D) the formation of colony by sh-C or shHSD2 cells treated or not with OCDO 1 μM was quantified as described in FIG. 6F. […] Animals were monitored for tumor growth twice a week. […] (F) Mean (±s.e.m) of Ki67 positive cell number determined from IHC staining of shC or shHSD2 MCF7 tumor sections from (E), n=8, *P<0.05 (Student's t-test) using HistoQuant, Pannoramic Viewer (3DHistech).
as §1

shHSD2 MCF7 cells = assay: Invasiveness of shHSD2 MCF7 cells (matrigel-coated filters); format: cell-based, human; conditions: OCDO 5 μM for 72 h
Method: as §3, §2

CC(C)CCC[C@@H](C)[C@H]1CC[C@H]2[C@@H]3CC(=O)[C@@]4(O)C[C@@H](O)CC[C@]4(C)[C@H]3CC[C@]12C [OCDO, 6-oxo-cholestan-3β,5α-diol] was tested, and the tumor growth (MDA-MB468 cells) was “stimulates the growth”, the “invasiveness compared with the control” value (TS/A cells) was 2.3 fold and the “cell proliferation by KI67 staining of tumors” value (ShC tumors) was “increased”. The “effect on the inhibition of cell invasion mediated by 11βHSD2 knock-down” value (shHSD2 MCF7 cells) was “reversed the inhibition of cell invasion”.
